Measurements reported in patent US8119624B2, “Fused phenyl amido heterocyclic compounds” (Pfizer Inc., priority 2006, dated 2012).

Target: T1, Full-length glucokinase (beta cell isoform) (Homo sapiens, UniProt P35557)
T1 construct: Full-length glucokinase (beta cell isoform) was His-tagged at N-terminus; His tag (N); made in house
T1 sequence (P35557 1-465): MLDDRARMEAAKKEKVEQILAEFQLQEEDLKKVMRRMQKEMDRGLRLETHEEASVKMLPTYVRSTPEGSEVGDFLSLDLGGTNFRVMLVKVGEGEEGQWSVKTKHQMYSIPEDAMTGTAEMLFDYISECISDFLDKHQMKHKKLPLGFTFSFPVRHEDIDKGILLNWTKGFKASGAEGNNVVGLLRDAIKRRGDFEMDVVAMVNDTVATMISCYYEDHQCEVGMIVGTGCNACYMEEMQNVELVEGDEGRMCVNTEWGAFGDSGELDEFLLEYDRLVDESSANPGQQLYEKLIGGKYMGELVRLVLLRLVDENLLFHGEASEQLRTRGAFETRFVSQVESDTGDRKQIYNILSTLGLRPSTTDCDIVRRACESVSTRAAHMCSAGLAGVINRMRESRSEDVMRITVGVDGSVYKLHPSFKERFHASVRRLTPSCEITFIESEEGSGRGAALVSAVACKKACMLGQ
Assay: Glucokinase biochemical assay (PK/LDH-coupled, NADH depletion at 340 nm): % activation, EC50, % max activation
Details: 5 mM glucose; for activation at 10 µM: 10 uM compound, % Activation=(Va/Vo−1)×100, read-out: % Activation at 10 uM; for EC50: GK activation, read-out: EC50; for Emax: fitted maximum activation, read-out: % Max Activation
Method in brief: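 N-terminally His-tagged full-length human beta-cell glucokinase, room temperature, 5 mM glucose, 1 mM ATP, PK/LDH-coupled with 0.7 mM NADH, 1% DMSO final. Initial velocity from the 200–900 s slope of A340 decline. % activation = (Va/Vo−1)×100, measured across compound concentrations.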

Row | activation at 10 µM [%] | EC50 [nM] | Emax [%] | Compound
1 | 4 |  |  | Cc1ccc(NC(=O)c2cc(Oc3ccc(C(=O)N(C)C)c(F)c3)c3sccc3c2)nc1 [Example 365, 7-(4-(Dimethylcarbamoyl)-3-fluorophenoxy)-N-(5-methylpyridin-2-yl)benzo[b]thiophene-5-carboxamide]
2 | 118 | 100 | 106 | COCC1(C)Cc2c(Oc3ccc(S(C)(=O)=O)cc3)cc(C(=O)Nc3ccc(C)cn3)cc2O1 (centres unmarked) [Example 231, 4-(4-Methanesulfonyl-phenoxy)-2-methoxymethyl-2-methyl-2,3-dihydro-benzofuran-6-carboxylic acid (5-methyl-pyridin-2-yl)-amide]
3 | 106 | 180 | 107 | Cc1cc2c(Oc3ccc(S(=O)(=O)N4CCC4)cc3)cc(C(=O)Nc3cnc(N(C)C)cn3)cc2o1 [Example 299, 4-(4-(Azetidin-1-ylsulfonyl)phenoxy)-N-(5-(dimethylamino)-pyrazin-2-yl)-2-methylbenzofuran-6-carboxamide]
4 | 39.2 | 2500 | 41 | Cc1ccc(NC(=O)c2cc(Oc3ccc(S(C)(=O)=O)cc3)c3cc(Cn4ccnc4C)oc3c2)nc1 [Example 320, 2-[(2-Methyl-1H-imidazol-1-yl)methyl]-N-(5-methylpyridin-2-yl)-4-[4-(methylsulfonyl)phenoxy]-1-benzofuran-6-carboxamide]

The next lines start with the compound.

Row | Compound | activation at 10 µM [%] | EC50 [nM] | Emax [%]
5 | CN(CCO)C(=O)c1ccc(Oc2cc(C(=O)Nc3ccn(C)n3)cc3c2CC(C)(C)O3)cc1F [Example 66, 4-{3-Fluoro-4-[(2-hydroxy-ethyl)-methyl-carbamoyl]-phenoxy}-2,2-dimethyl-2,3-dihydro-benzofuran-6-carboxylic acid(1-methyl-1H-pyrazol-3-yl)-amide] | 149 | 410 | 168
6 | Cc1cc2cc(Oc3ccc(S(C)(=O)=O)cc3)cc(C(=O)Nc3ccn(C)n3)c2o1 [Example 4, 5-(4-Methanesulfonyl-phenoxy)-2-methyl-benzofuran-7-carboxylic acid(1-methyl-1H-pyrazol-3-yl)-amide] | 14.6 |  | 
7 | CC1(C)Cc2c(Oc3ccc(S(C)(=O)=O)cc3)cc(C(=O)Nc3ccc(CO)cn3)cc2O1 [Example 22, 4-(4-Methanesulfonyl-phenoxy)-2,2-dimethyl-2,3-dihydro-benzofuran-6-carboxylic acid (5-hydroxymethyl-pyridin-2-yl)-amide] | 118 | 290 | 117
8 | Cc1ccnc(NC(=O)c2cc(Oc3ccc(S(C)(=O)=O)cc3)c3c(c2)OC(C)(C)C3)c1 [Example 23, 4-(4-Methanesulfonyl-phenoxy)-2,2-dimethyl-2,3-dihydro-benzofuran-6-carboxylic acid(4-methyl-pyridin-2-yl)-amide] | 46.1 | 1400 | 70
9 | Cn1ccc(NC(=O)c2cc(Oc3ccc(C(F)F)cc3)c3c(c2)OC(C)(C)C3)n1 [Example 38, 4-(4-Difluoromethyl-phenoxy)-2,2-dimethyl-2,3-dihydro-benzofuran-6-carboxylic acid(1-methyl-1H-pyrazol-3-yl)-amide] | 109 | 2400 | 149
10 | Cn1ccc(NC(=O)c2cc(Oc3ccc(C#N)nc3)c3c(c2)OC(C)(C)C3)n1 [Example 181, 4-(6-Cyano-pyridin-3-yloxy)-2,2-dimethyl-2,3-dihydro-benzofuran-6-carboxylic acid (1-methyl-1H-pyrazol-3-yl)-amide] | 171 | 1100 | 182
11 | Cn1ccc(NC(=O)c2cc(Oc3ccc(C(=O)N4CCCC4)cc3)c3c(c2)OC(C)(C)C3)n1 [Example 48, 2,2-Dimethyl-4-[4-(pyrrolidine-1-carbonyl)-phenoxy]-2,3-dihydro-benzofuran-6-carboxylic acid(1-methyl-1H-pyrazol-3-yl)-amide] | 130 | 142 | 114
